Literature values in US20170071955A1, “METHOD OF STABILIZING WEIGHT AFTER A WEIGHT-LOSS DIET USING PHYTOECDYSONES” (BIOPHYTIS SA, priority 2011, published 2017).

Conditions: mammals on a fattening hypercaloric diet

Question: Which “effect on body fat” value does the source give for `CC(C)(O)CC[C@@H](O)[C@](C)(O)[C@H]1CC[C@@]2(O)C3=CC(=O)[C@@H]4C[C@@H](O)[C@@H](O)C[C@]4(C)[C@H]3CC[C@]12C` [20-hydroxyecdysone] here?
Answer: reduce the increase of body fat
